Source: PubChem BioAssay AID1918955 (Molecular Pharmacology Branch, DTP, NCI, 2023)
pIC50: −log10 of the molar value. Several values for one entry are separate records, joined by “and”; a condition that tells them apart may be missing. Equal values may be shown once.

Tested on: NCI/ADR-RES complex spheroid viability
Assay: Anticancer human tumor NCI/ADR-RES cell line growth inhibition;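 note: spheroids exposed to compounds for 7 days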;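 for viability, T/C: 100% = DMSO vehicle treated spheroids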
Settings: for viability, T/C: stronger effect = lower value
Description: Multicellular complex tumor spheroid response to LSD1 Inhibitor Iadademstat in combination with a variety of drugs and investigational agents in selected tumor cell lines
The current study was undertaken to assess response to LSD1 inhibitors in combination with standard-of-care drugs and investigational agents in solid tumor complex spheroid models as well as in the K-562 leukemia. Complex spheroids include a stromal component modeled by human endothelial cells (HUVEC) and fibroblasts modeled by human mesenchymal stem cells (MSCs). The concentration ranges selected for each drug and investigational agent were based upon clinically achievable concentrations if the clinical Cmax of the agent was known.
Compounds. The drugs and investigational agents used in this study are listed on Table 1. All of the agents used, including staurosporine (NSC755774) and gemcitabine (NSC613327), were obtained from the Developmental Therapeutics Program, NCI. FDA-approved anticancer drugs are available from the NCI at http://dtp.nci.nih.gov/branches/dscb/oncology_drugset_explanation.html. Drugs and investigational agents were >95% pure by proton nuclear magnetic resonance (NMR) and liquid chromatography/mass spectrometry (LC/MS). Stock solutions were prepared at 400x in DMSO, stored at -70 degrees C, and diluted in fresh medium prior to their use. The final concentration of DMSO in cell culture wells never exceeded 0.25% (v/v). The FDA-approved anticancer drug set is available from the Developmental Therapeutics Program at https://dtp.cancer.gov/organization/dscb/obtaining/available_plates.htm. All drugs and investigational agents were tested over a range starting from a high concentration at or near the clinical Cmax and decreasing in half-log increments. If the clinical Cmax for an agent had not been determined, the highest concentration tested was 10 microM.
Cell Lines. The patient-derived cancer cell (PDC) lines: 292921-168-R-J2-PDC, K24384-001-R-PDC, and 521955-158-R2-J5-PDC pancreatic carcinomas, 556581-035-R-J1 ovarian carcinoma, 324938-238-R-J1-PDC, 855422-203-R-J1-PDC and 883617-216-R-J1-PDC urothelial bladder carcinomas, 743489-274-T-PDC renal cell carcinoma, 138582-R-J1 Merkel cell tumor, K60290-347-R-J1 and K57222-313-R-J1-PDC glioblastomas, 653999-131-R-J2-PDC, LG0703-F948-PDC, and 349418-098-R-PDC non-small cell lung carcinomas, 885512-296-R-J2-PDC, 171881-019-R-J1-PDC breast carcinomas and 186277-243-T-J2-PDC and 233499-124-R-J2-PDC colon carcinomas were obtained from the NCI Patient-Derived Models Repository (PDMR, https://pdmr.cancer.gov). The established cell lines NCI/ADR-RES (RRID:CVCL_14520 and OVCAR-5 (RRID:CVCL_1628) ovarian carcinomas, 786-O (RRID:CVCL_1051) and A498 (RRID:CVCL_A498) renal cell carcinoma, NCI-H211 (ATCC, cat. CRL-5824; RRID:CVCL_1529), NCI-H196 (ATCC, cat. CRL-5823, RRID:CVCL_1509), SW 1271 (ATCC, cat. CRL-2177, RRID:CVCL_1716) and NCI-H1876 (ATCC, cat. CRL-5902, RRID:CVCL_1503) small cell lung carcinomas, MDA-MB-231 (RRID:CVCL_0062) and MDA-MB-468 (RRID:CVCL_0419)breast carcinomas (10-12). Pooled donor human umbilical vein endothelial cells (HUVEC, Lonza, cat. CC-2519) and human mesenchymal stem cells (hMSC, Lonza, cat. PT-2501) were purchased from Lonza (Walkersville, MD).
Cell Culture. All cells were maintained in an incubator at 37 degrees C and 5% CO2 with 95% humidity. The PDC lines were cultured according to standard operating procedures established by the NCI PDMR (https://pdmr.cancer.gov). Briefly all PDCs were thawed and cultured in Matrigel-coated flasks prepared with a working solution of 1X Ham's F-12 nutrient mix, without supplementation (Invitrogen, Waltham, MA, cat. 11765054), 100 U/mL penicillin-streptomycin (Invitrogen, cat. 15140122), and 2.5% Matrigel (Corning Inc., Corning, NY, cat. 354248) for the first three passages. […]

pIC50 (curve of compound)	Compound	viability, T/C (compound 0.0316 µM)	viability, T/C (compound 0.1 µM)	viability, T/C (compound 0.316 µM)	viability, T/C (compound 1 µM)	viability, T/C (compound 3.16 µM)	viability, T/C (compound 10 µM)	viability, T/C (compound 0.00949 µM)	viability, T/C (compound 0.03 µM)	viability, T/C (compound 0.0949 µM)	viability, T/C (compound 0.3 µM)	also measured
5.42 and 5.53	COc1ccc([C@@H](O)c2cc(-c3ncnc4cc(N5CCOCC5)ccc34)c(F)cc2Cl)nn1	106%	99.9% and 99.3%	87.1% and 94.3%	77.2% and 72.6%	52.9% and 49.2%	28.3% and 28%					
> 9.02	Nc1ccn(C2OC(CO)C(O)C2(F)F)c(=O)n1 (configuration not stated)							3.95% and 4.1%	3.55% and 2.02%	3.71% and 1.86%	1.91% and 1.26%	viability, T/C (compound 0.000949 µM): 8.59% and 3.05%; viability, T/C (compound 0.003 µM): 3.76% and 3.9%
7.15 and 7.36	Nc1ncn(C2CC(O)C(CO)O2)c(=O)n1 (configuration not stated)	71% and 57.2%	40.1% and 33.6%	27.4% and 18.6%	19.8% and 12.7%							viability, T/C (compound 0.00316 µM): 95.5% and 91.8%; viability, T/C (compound 0.01 µM): 89.1% and 76.3%
7.85 and 8.17	Nc1ncn(C2CC(O)C(CO)S2)c(=O)n1 (configuration not stated)							53.8% and 40.1%	38.7% and 27.5%	21.2% and 11.8%	6.02% and 3.16%	viability, T/C (compound 0.000949 µM): 86.4% and 84.4%; viability, T/C (compound 0.003 µM): 75.9% and 67.9%
< 5.00	O=C(c1cc(Cc2n[nH]c(=O)c3ccccc23)ccc1F)N1CCN(C(=O)C2CC2)CC1	102%	102% and 99.6%	104% and 102%	105% and 97.3%	90.7% and 95.4%	89.6% and 85%					

The next lines start with the compound.

Compound	pIC50 (curve of compound)	viability, T/C (compound 0.0316 µM)	viability, T/C (compound 0.1 µM)	viability, T/C (compound 0.316 µM)	viability, T/C (compound 1 µM)	viability, T/C (compound 3.16 µM)	viability, T/C (compound 10 µM)	viability, T/C (compound 0.00949 µM)	viability, T/C (compound 0.03 µM)	viability, T/C (compound 0.0949 µM)	viability, T/C (compound 0.3 µM)	also measured
Cn1ncnc1C1c2n[nH]c(=O)c3cc(F)cc(c23)NC1c1ccc(F)cc1 (configuration not stated)	< 7.00	96.5% and 100%	105% and 101%									viability, T/C (compound 0.000316 µM): 103% and 101%; viability, T/C (compound 0.001 µM): 109% and 102%; viability, T/C (compound 0.00316 µM): 106% and 103%; viability, T/C (compound 0.01 µM): 99.4% and 99.5%
NC1CC1c1ccc(-c2cccc(O)c2)cc1 (configuration not stated)			99.3% and 104%	105% [middle of 24 runs]	99.4% [middle of 24 runs]	97.5% [middle of 25 runs]	86.9% [middle of 25 runs]					pIC50 (compound alone, run of 12/07/2021): < 5.00
NC1CCC(NC2CC2c2ccccc2)CC1 (configuration not stated)			104% [middle of 25 runs]	110% and 108% (2×)	102% [middle of 24 runs]	99.8% [middle of 25 runs]	91.5% [middle of 23 runs]					pIC50 (compound alone, run of 11/29/2021): < 5.00
NS(=O)(=O)OCC1CC(n2ccc3c(NC4CCc5ccccc54)ncnc32)CC1O (configuration not stated)	6.22 and 6.10							94% and 94.6%	91% and 98.8%	87.3% and 86.9%	72.3% and 74.8%	viability, T/C (compound 0.949 µM): 35.7% and 45.3%; viability, T/C (compound 3 µM): 14.5% and 17.2%
Nc1ccccc1NC(=O)c1ccc(CNC(=O)OCc2cccnc2)cc1	5.83 and 6.05							105% and 99.8%	98.3% and 100%	88.4% and 94.4%	81.6% and 75.8%	viability, T/C (compound 0.949 µM): 58.7% and 49.3%; viability, T/C (compound 3 µM): 33.9% and 26.6%
O=C(C=Cc1cccc(S(=O)(=O)Nc2ccccc2)c1)NO	7.16 and 7.14							95.3% and 96%	81.6% and 75.3%	36.6% and 42%	16.7% and 17.2%	viability, T/C (compound 0.949 µM): 7.77% and 6.17%; viability, T/C (compound 3 µM): 2.68% and 1.54%
O=C(C=Cn1cnc(-c2cc(C(F)(F)F)cc(C(F)(F)F)c2)n1)NNc1cnccn1	8.24 and 8.35	20.3% and 16.5%	10.6% and 5.99%	6.07% and 1.5%	2.27% and 0.91%							viability, T/C (compound 0.00316 µM): 69.8% and 61.6%; viability, T/C (compound 0.01 µM): 28.8% and 22.1%
